Assay results from US6599892B2, “7-alkylidene cephalosporanic acid derivatives and methods of using the same” (Research Corporation Technologies, Inc., priority 1994, dated 2003).
Where a name gives a salt, the structure may show the parent alone.

Columns and labels:
[1] = biological target: E. coli. W3310 β-lactamase (TEM2) (Escherichia coli, UniProt P62593, Q37K); settings: read-out: IC50 (nM) E. Coli WC3310; 10 minute incubation of enzyme and inhibitor; nitrocefin substrate
[2] = biological target: Class C β-lactamase of Enterobacter cloacae P99 (Enterobacter cloacae, UniProt P05364); format: biochemical; settings: for IC50: 10 minute incubation of enzyme and inhibitor, nitrocefin substrate, read-out: IC50 (nM) E. cloacea P99
Description: (§1) The IC50 value of each compound was determined as follows. Following a 10 minute incubation of a dilute solution of enzyme (2.56 nm) and inhibitor (<0.64 mM), a […] of this incubation mixture was then further diluted into 1 mL nitrocefin solution, and the rate of hydrolysis was measured during a 1 minute period by monitoring the absorbance of nitrocefin as a function of time.

[3] = biological target: E. cloacae SC 12368 β-lactamase (Enterobacter cloacae, UniProt P05364); format: biochemical; settings: 10 minute incubation of enzyme and inhibitor; nitrocefin substrate; read-out: IC50 (nM) E. cloacea SC12368
Description: as §1

Molecule | IC50 [1] | IC50 [2] | IC50 [3] | fold increase in activity of sulfone over its sulfide 6e [2] | fold increase in activity over tazobactam [2]
CC(=O)OCC1=C(C(=O)O)N2C(=O)C(=C(Br)Br)C2SC1 (stereo not shown) [Compound 6a, Sodium salt of 7-[dibromomethylene] cephalosporanic acid] | > 20000 nM | > 20000 nM | > 20000 nM |  | 
CC(=O)OCC1=C(C(=O)O)N2C(=O)C(=C(Cl)Cl)C2SC1 (stereo not shown) [Compound 6b, Sodium salt of 7-[dichloromethylene] cephalosporanic acid] | > 20000 nM | > 20000 nM | > 20000 nM |  | 
CC(=O)OCC1=C(C(=O)O)N2C(=O)/C(=C/c3ccccn3)C2SC1 (stereo not shown) [Compound 6e, Sodium salt of ^7-[(Z)-(2′-pyridyl)methylene] cephalosporanic acid] | > 20000 nM | > 20000 nM | > 20000 nM |  | 
CC(=O)OCC1=C(C(=O)O)N2C(=O)/C(=C/C(=O)OC(C)(C)C)C2SC1 (stereo not shown) [Compound 6g, Sodium salt of 7-[(Z)-t-butoxycarbonylmethylene] cephlosporanic acid] | > 20000 nM | 2500 nM | > 20000 nM |  | 
CC(=O)/C=C1/C(=O)N2C(C(=O)O)=C(COC(C)=O)CSC12 (stereo not shown) [Compound 6h, Sodium salt of 7-[(Z)-acetylmethylene] cephlosporanic acid] | > 20000 nM | > 20000 nM | > 20000 nM |  | 
CON(C)C(=O)/C=C1/C(=O)N2C(C(=O)O)=C(COC(C)=O)CSC12 (stereo not shown) [Compound 6k, Sodium of salt of 7-[(Z)-N-methoxy-N-methylamino-carbonylmethylene] cephlosporanic acid] | > 20000 nM | > 20000 nM | > 20000 nM |  | 
CC(=O)OCC1=C(C(=O)O)N2C(=O)/C(=C\Br)C2SC1 (stereo not shown) [Compound 6l, Sodium salt of 7-[(E)-bromomethylene] cephalosporanic acid] | > 20000 nM | > 20000 nM | > 20000 nM |  | 
CC(=O)OCC1=C(C(=O)O)N2C(=O)/C(=C/C(C)(C)C)C2SC1 (stereo not shown) [Compound 6m, Sodium salt of 7-[(Z)-t-butylmethylene] cephalosporanic acid] | > 20000 nM | > 20000 nM | > 20000 nM |  | 
CC(=O)OCC1=C(C(=O)O)N2C(=O)C(=C(Br)Br)C2S(=O)(=O)C1 (stereo not shown) [Compound 7a, Sodium salt of 7-[dibromomethylene] cephalosporanic acid sulfone] | > 20000 nM | > 20000 nM | > 20000 nM |  | 
CC(=O)OCC1=C(C(=O)O)N2C(=O)C(=C(Cl)Cl)C2S(=O)(=O)C1 (stereo not shown) [Compound 7b, Sodium salt of 7-[dichloromethylene] cephalosporanic acid sulfone] | 8300 nM | > 20000 nM | > 20000 nM |  | 
CC(=O)OCC1=C(C(=O)O)N2C(=O)/C(=C\c3ccccc3)C2S(=O)(=O)C1 (stereo not shown) [Compound 7c, Sodium salt of 7-[(E)-benzylidene] cephalosporanic acid sulfone] | > 20000 nM | > 20000 nM | > 20000 nM |  | 
CC(=O)OCC1=C(C(=O)O)N2C(=O)/C(=C/c3ccccc3)C2S(=O)(=O)C1 (stereo not shown) [Compound 7d, Sodium salt of 7-[(Z)-benzylidene] cephalosporanic acid sulfone] | > 20000 nM | 6250 nM | 6800 nM |  | 
CC(=O)OCC1=C(C(=O)[O-])N2C(=O)/C(=C/c3ccccn3)C2S(=O)(=O)C1.[Na+] (stereo not shown) [Compound 7e, Sodium salt of 7-[(Z)-(2′-pyridyl)methylene] cephalosporanic acid sulfone] | 800 nM | 25 nM | 25 nM | 1300 fold | 20 fold
CC(=O)OCC1=C(C(=O)O)N2C(=O)/C(=C/CO)C2S(=O)(=O)C1 (stereo not shown) [Compound 7j, Sodium salt of 7-[(Z)-hydroxymethylmethylene] cephalosporanic acid sulfone] | > 20000 nM | > 20000 nM | > 20000 nM |  | 
CC(=O)OCC1=C(C(=O)O)N2C(=O)/C(=C\Br)C2S(=O)(=O)C1 (stereo not shown) [Compound 7l, Sodium salt of 7-(E)-[bromomethylene] cephalosporanic acid sulfone] | > 20000 nM | > 20000 nM | > 20000 nM |  | 
CC(=O)OCC1=C(C(=O)O)N2C(=O)/C(=C/C(C)(C)C)C2S(=O)(=O)C1 (stereo not shown) [Compound 7m, Sodium salt of 7-[(Z)-t-butylmethylene] cephalosporanic acid sulfone] | > 20000 nM | > 20000 nM | > 20000 nM |  | 
Sodium salt of 7-[(Z)-t-butoxymethylene] cephalosporanic acid sulfone [Compound 7g] |  | 7800 nM | 5900 nM |  | 
